Measured values published in patent publication US20040091933A1, “Methods for genetic interpretation and prediction of phenotype” (priority 2003, published 2004).

Test system: yeast
Assay: Comparison of the transcript profile of clotrimazole-treated yeast with landmark transcript profiles of yeast mutants (correlation coefficient r)
Type: cell-based
Details: transcript abundances relative to wild-type
Procedure: FIG. 2(a-f) illustrates the correlation between the transcriptional response profile of yeast treated with clotrimazole and the transcriptional response profiles of yeast with perturbations in SWI4, RPD3, CNA1 CNA2, HMG2 and ERG11 genes. A straight line (higher correlation coefficient, r) indicates the greatest similarity.
In a preferred embodiment, the similarity between profiles is measured by a weighted correlation coefficient, r, given by Equation 4: [formula]
xik is […] and xjk is qjk/σjk, where qik and qjk are the logarithms of the expression ratios between the perturbed and baseline conditions for gene k in profiles i and j, respectively, and σik and σjk are the expected root mean square uncertainties in the measurements of qik and qjk, respectively. This is an optimally-weighted measure of correlation between two profiles, given the error estimate, σ, on each data point.
In many cases, the particular gene in the pathway that is responsible for a particular phenotype can be identified. […]

Clc1ccccc1C(c1ccccc1)(c1ccccc1)n1ccnc1 [clotrimazole]
correlation coefficient r between clotrimazole transcriptional response and landmark profile (landmark: yeast having a disruption of the ERG11 gene (FIG. 2f)): 0.96
correlation coefficient r between clotrimazole transcriptional response and landmark profile (landmark: yeast having a disruption of the HMG2 gene (FIG. 2e)): 0.83
